# Reference: US20230233736A1, “ANTIMICROBIAL FORMULATIONS COMPRISING SILICONE” (AMICOAT AS, priority 2020, published 2023)
# Where a SMILES comes first, the peptide text is derived from it. The star is where a group is joined. NHPhenethyl = c1ccc(CCN*)cc1
# Legend:
# S. pyogenes = assay: Antimicrobial assay, Table 5; type: cell-based
# [1] = system: Staphylococcus aureus, strain ATCC 25923; conditions: for S. aureus: Table 5, strain ATCC 25923; for MIC: S. aureus ATCC 25923
# [2] = system: Methicillin resistant Staphylococcus epidermidis (MRSE) strain ATCC 27626; conditions: for MRSE: Table 5, strain ATCC 27626; for MIC: MRSE ATCC 27626
# [3] = system: Methicillin resistant Staphylococcus aureus (MRSA) strain ATCC 33591; conditions: for MRSA: Table 5, strain ATCC 33591; for MIC: MRSA ATCC 33591
# C. albicans = assay: Antimicrobial assay, Table 5; type: cell-based
# Salmonella sp = assay: MIC microbroth dilution (CLSI); type: cell-based
# From the text: (§1) Cation-adjusted Mueller-Hinton broth (Oxoid Ltd., Basingstoke, UK and Trek Diagnostic Systems Ltd., East Grinstead, UK) (supplemented with 5% laked horse blood for Streptococcus spp., Corynebacterium jeikeium and Listeria monocytogenes) was used for aerobic bacteria, with an initial inoculum of approximately 10^5 colony-forming units (CFU)/m L.
# Shigella sp = assay: MIC microbroth dilution (CLSI); type: cell-based; conditions: antibiotic-susceptible clinical isolate
# From the text: as §1
# [4] = system: Staphylococcus saprophyticus; assay: MIC microbroth dilution (CLSI); type: cell-based; conditions: antibiotic susceptible clinical isolate
# From the text: as §1
# [5] = system: Stenotrophomonas maltophilia; assay: MIC microbroth dilution (CLSI); type: cell-based; conditions: antibiotic-susceptible clinical isolate
# From the text: as §1
# Enterococcus gallinarum = assay: MIC microbroth dilution (CLSI); type: cell-based; conditions: vancomycin-resistant (VanC) clinical isolate
# From the text: as §1
# Listeria monocytogenes = assay: MIC microbroth dilution (CLSI); type: cell-based; conditions: antibiotic-susceptible clinical isolate
# From the text: as §1
# Microsporum canis = assay: MIC microbroth dilution (CLSI); type: cell-based; conditions: G.R. Micro collection
# Acinetobacter baumanii = assay: MIC microbroth dilution (CLSI); type: cell-based; parameters: unit not given beside the values; conditions: antibiotic-susceptible clinical isolate
# From the text: as §1
# Streptococcus pyogenes = type: cell-based; conditions: Macrolide (M-type) resistance clinical isolate
# From the text: as §1
# Clostridium difficile = assay: MIC microbroth dilution (CLSI); type: cell-based; parameters: unit not given beside the values; conditions: antibiotic-susceptible clinical isolate
# Candida tropicalis = assay: MIC microbroth dilution (CLSI); type: cell-based; conditions: ATCC750 - reference strain
# Bacteroides fragilis = assay: MIC microbroth dilution (CLSI); type: cell-based; parameters: unit not given beside the values; conditions: ATCC 25285; SBB
# Cryptococcus neoformans = assay: MIC microbroth dilution (CLSI); type: cell-based; conditions: G.R. Micro collection
# Eggerthella lenta = assay: MIC microbroth dilution (CLSI); type: cell-based; parameters: unit not given beside the values; conditions: ATCC 43055; SBB
# Aspergillus niger = assay: MIC microbroth dilution (CLSI); type: cell-based; conditions: G.R. Micro collection
# [6] = system: Trichophyton mentagrophytes; assay: MIC microbroth dilution (CLSI); type: cell-based; conditions: G.R. Micro collection
# [7] = system: Trichophyton interdigitale; assay: MIC microbroth dilution (CLSI); type: cell-based; conditions: G.R. Micro collection
# trypsin = assay: in vitro; type: in vitro ADME; conditions: pH 8.6
# Experimental: Each peptide was dissolved in a 0.1 M NH4HCO3 buffer (pH 6.5) to yield a final peptide concentration of 1 mg/ml. A trypsin solution was prepared by dissolving 1 mg of trypsin in 50 ml 0.1 M NH4HCO3 buffer (pH 8.2). For the stability determination, 250 μl freshly made trypsin solution and 250 μl peptide solution were incubated in 2 ml of 0.1 M NH4HCO3 buffer (pH 8.6) at 37° C. on a rocking table. Aliquots of 0.5 ml were sampled at different time intervals, diluted with 0.5 ml water:acetonitrile (60:40 v/v) containing 1% TFA and analysed by RP-HPLC as described above. Samples without trypsin addition taken at 0 h and after 20 h at 37° C. were used as negative controls. Integration of the peak area at 254 nm for samples taken during the first 5 hours of the assay was used to generate the […].
# P. aeruginosa = assay: Antimicrobial assay, Table 5; type: cell-based
# E. coli = assay: Antimicrobial assay, Table 5; type: cell-based
SMILES,S. pyogenes (S. pyogenes),S. aureus [1],MRSE [2],MRSA [3],C. albicans (C. albicans),MIC [2],MIC [3],further results
CC(C)(C)c1cc(C(C)(C)C)c2[nH]c(C(C)(C)C)c(C[C@H](NC(=O)[C@@H](N)CCCNC(=N)N)C(=O)N[C@@H](CCCNC(=N)N)C(=O)NC3CCCCC3)c2c1 [Compound 13],<2 mg/L,<2 mg/L,2 mg/L,2 mg/L,10 mg/L,–,–,–
N=C(N)NCCCC(N)C(=O)NC(Cc1ccc(-c2ccc3ccccc3c2)cc1)C(=O)NC(CCCNC(=N)N)C(=O)NCCc1ccccc1 (stereo not shown) [Compound 1],–,–,–,–,–,<3 µM,<3 µM,MIC (Salmonella sp; antibiotic-susceptible clinical isolate): 16; MIC (Salmonella sp; multi-drug resistant clinical isolate): 16; MIC (Shigella sp): 32; MIC [4]: 1; MIC [5]: 64; MIC (Enterococcus gallinarum): 4; MIC (Listeria monocytogenes): 32; MIC (Microsporum canis): 8; MIC (Acinetobacter baumanii): 64; MIC (Streptococcus pyogenes): 32; MIC [1]: 4 µM; MIC (Clostridium difficile): 32; MIC (Candida tropicalis): 2; MIC (Bacteroides fragilis): 64; MIC (Cryptococcus neoformans): 4; MIC (Eggerthella lenta): 16; MIC (Aspergillus niger): 4; MIC [6]: 16; MIC [7]: 8
CC(C)(C)c1cc(C(C)(C)C)c2[nH]c(C(C)(C)C)c(C[C@H](NC(=O)[C@@H](N)CCCCN)C(=O)N[C@@H](CCCCN)C(=O)NCCc3ccccc3)c2c1 [Compound 4],–,–,–,–,–,<2 µM,3 µM,half-life at 0.1 mg/ml (trypsin): > 24 h
"N=C(N)NCCC[C@H](NC(=O)[C@H](Cc1c[nH]c2ccccc12)NC(=O)[C@@H](N)CCCNC(=N)N)C(=O)NCCc1ccccc1 [Compound 6, reference compound] (H-Arg-Trp-Arg-NHPhenethyl)",–,–,–,–,–,81 µM,97 µM,MIC [1]: 145 µM
CCCCNC(=O)[C@H](CCCNC(=N)N)NC(=O)[C@H](Cc1c(C(C)(C)C)[nH]c2c(C(C)(C)C)cc(C(C)(C)C)cc12)NC(=O)[C@@H](N)CCCNC(=N)N [Compound 9],2 mg/L,2 mg/L,<2 mg/L,3 mg/L,10 mg/L,–,–,–
N=C(N)NCCC[C@H](NC(=O)C(Cc1ccc(-c2cccc3ccccc23)cc1)NC(=O)[C@@H](N)CCCNC(=N)N)C(=O)NCCc1ccccc1 (stereo partly shown) [Compound 3],–,–,–,–,–,–,–,half-life at 0.1 mg/ml (trypsin): 20 h
CC(C)CNC(=O)[C@H](CCCNC(=N)N)NC(=O)[C@H](Cc1c(C(C)(C)C)[nH]c2c(C(C)(C)C)cc(C(C)(C)C)cc12)NC(=O)[C@@H](N)CCCNC(=N)N [Compound 12],2 mg/L,<2 mg/L,2 mg/L,3 mg/L,10 mg/L,–,–,–
CC(C)(C)c1cc(C(C)(C)C)c2[nH]c(C(C)(C)C)c(C[C@H](NC(=O)[C@@H](N)CCCNC(=N)N)C(=O)N[C@@H](CCCNC(=N)N)C(=O)NC3CCCC3)c2c1 [Compound 14],2 mg/L,<2 mg/L,<2 mg/L,>15 mg/L,10 mg/L,–,–,–
CCCNC(=O)[C@H](CCCNC(=N)N)NC(=O)[C@H](Cc1c(C(C)(C)C)[nH]c2c(C(C)(C)C)cc(C(C)(C)C)cc12)NC(=O)[C@@H](N)CCCNC(=N)N [Compound 10],2 mg/L,2 mg/L,<2 mg/L,3 mg/L,10 mg/L,–,–,–
CCCCCCCCCCCCCCCCNC(=O)[C@H](CCCNC(=N)N)NC(=O)[C@H](Cc1c(C(C)(C)C)[nH]c2c(C(C)(C)C)cc(C(C)(C)C)cc12)NC(=O)[C@@H](N)CCCNC(=N)N [Compound 11],6 mg/L,5 mg/L,4 mg/L,4 mg/L,>100 mg/L,–,–,P. aeruginosa (P. aeruginosa): >100 mg/L; E. coli (E. coli): >100 mg/L
N=C(N)NCCC[C@H](NC(=O)C(Cc1ccc(-c2ccc(-c3ccccc3)cc2)cc1)NC(=O)[C@@H](N)CCCNC(=N)N)C(=O)NCCc1ccccc1 (stereo partly shown) [Compound 5],–,–,–,–,–,3 µM,3 µM,MIC [1]: 5 µM; half-life at 0.1 mg/ml (trypsin): > 24 h
